Experiments:
PAOh4 = biological target: T1, PAOh4 (Homo sapiens, UniProt Q9NWM0); assay: Kinetics of TnT-produced PAOh4 isoenzyme; format: biochemical; settings: named compound as substrate
T1 construct: For PAO-isoform 4, the cDNA is 1825 bp long; the open reading frame encodes 532 amino acids; made in house; host or cells: Wheat Germ Extract-TnT coupled system (Promega), template pPAOh4 (pcDNA3.1), cDNA from HEK-293 mRNA
Experimental: For PAO splice variant protein analysis, each cDNA construct, as well as the pcDNA3.1 empty vector, was linearized using NdeI. In vitro transcription and translation was subsequently performed using the Wheat Germ Extract-TnT coupled system from Promega (Madison, Wis., U.S.A.) according to the manufacturer's protocol. Reactions were performed in parallel, with one aliquot containing [^35S]methionine in the amino acid mixture for subsequent separation and quantification by SDS-PAGE. […] After drying, bands were visualized and quantified using phosphorimage analysis with Image Quant software from Molecular Dynamics (Sunnyvale, Calif., U.S.A.).
TnT products from the reactions using unlabelled substrates were used for PAO enzyme analysis by the method of Suzuki et al. Specifically, 10 μl of the TnT reaction mixture was used for each 600 μl of PAO assay sample (in duplicate, and in the presence of monoamine and diamine oxidase inhibitors, as previously described). Background oxidase activity in the Wheat Germ Extract-TnT reactions was determined for each substrate using the empty pcDNA3.1 vector. These values (always<0.05 pmol/min) were subtracted from the oxidase activity measured in TnT lysates produced from vectors containing the individual splice variants. To ensure linearity of the reaction (thereby determining the optimal incubation time after substrate addition), time courses were performed for each potential isoenzyme in the presence of 1 mM Spm (Sigma, St. Louis, Mo., U.S.A.).
Apparent kinetics were examined for each isoenzyme using TnT reaction products as described above with increasing concentrations of Spm, Spd (Sigma) or N^1-acetylspermine (N^1-AcSpm; Fluka). Apparent Km and Vmax values were determined using the Lineweaver-Burk transformation of the Michaelis-Menten equation. Values were adjusted for TnT reaction efficiency by SDS-PAGE quantfication of a [^35S]methionine-labelled aliquot of the TnT reaction mixture normalized for methionine content.

[1] = biological target: T2, purified recombinant human PAOh1/SMO (Homo sapiens, UniProt Q9NWM0); assay: Oxidase activity of purified recombinant PAOh1/SMO, luminol chemiluminescence; format: biochemical; settings: for ability to serve as substrate (oxidation by purified PAOh1/SMO): 250 μM of compound; for inhibition of PAOh1/SMO activity, increasing concentrations: 250 μM spermine
T2 construct: A 1702 bp fragment of the PAOh1cDNA was produced by PCR; His tag (pET15b) (N); made in house; host or cells: Escherichia coli BL21(DE3)
T2 sequence (Q9NWM0 whole entry, the tested form may be a part): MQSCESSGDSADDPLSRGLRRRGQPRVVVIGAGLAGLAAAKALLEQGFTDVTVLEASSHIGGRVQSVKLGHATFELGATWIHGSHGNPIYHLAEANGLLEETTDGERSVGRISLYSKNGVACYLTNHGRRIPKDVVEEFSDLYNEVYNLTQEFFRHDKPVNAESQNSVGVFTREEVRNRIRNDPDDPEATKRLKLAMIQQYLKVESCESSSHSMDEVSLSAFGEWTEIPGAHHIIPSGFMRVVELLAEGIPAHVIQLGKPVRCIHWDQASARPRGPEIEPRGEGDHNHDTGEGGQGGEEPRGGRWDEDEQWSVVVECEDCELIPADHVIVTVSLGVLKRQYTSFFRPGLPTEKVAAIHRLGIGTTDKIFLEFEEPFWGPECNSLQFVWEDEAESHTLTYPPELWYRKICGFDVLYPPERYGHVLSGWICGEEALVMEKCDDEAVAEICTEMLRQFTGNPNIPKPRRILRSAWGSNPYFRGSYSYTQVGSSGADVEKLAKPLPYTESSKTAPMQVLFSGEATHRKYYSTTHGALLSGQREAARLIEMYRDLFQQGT
Experimental: Expression and Purification of PAOh1/SMO. The pET15b/PAOh1/SMO plasmid was used to transform the BL21(DE3) strain of Escherichia coli (Novagen) and transformed cells were selected on LB agar with 50 μg/ml ampicillin. The expression of PAOh1/SMO protein was induced in LB medium by the addition of 1 mM IPTG for 3 h at 37 ° C. Cell lysates were prepared under denaturing conditions with 8M urea and PAOh1/SMO protein was purified from the lysate by Ni-NTA resin according to the manufacturer's protocol (Qiagen, Valencia, Calif.). The resulting denatured protein was renatured in buffers containing decreasing concentrations of urea (5M urea, 4 h; 2.5M urea, 4 h; 1M urea, 12 h; and 0M urea, 12 h) and 50 mM Tris-HCl, pH 7.5, 250 mM NaCl, 0.1 mM EDTA, 1 mM DTT, and 0.2 μM flavin adenine dinucleotide (FAD).
Determination of PAO enzyme activity. PAO activity of the purified PAOh1/SMO was assayed using a modi.cation of the chemiluminesence analysis reported by Fernandez et al. and Rogers, et al.. Briefly, luminol-dependent chemiluminescence was determined using a Monolight 3010 luminometer with two reagent injectors. Luminol was prepared as a 100 mM stock solution in DMSO and diluted to 100 μM with H2O, immediately prior to use. Purified PAOh1/SMO was assayed in a 100 mM glycine buffer, pH 8.0, 5 ηmol luminol, 20 μg horseradish peroxidase, and the polyamine substrate as indicated. All reagents with the exception of the polyamine substrate were combined and incubated for 2 min at 37 ° C., then the tube was transferred to the luminometer, substrate was added, and the resulting chemiluminescence was integrated over 20 s. The integral values are calibrated against standards containing known concentrations of H2O2 and the activities are expressed as pmols H2O2/mg protein/min. Where indicated, inhibitors were added at the specified concentrations prior to the addition of substrate. Km and Vmax values for the purified enzyme with the indicated substrate were estimated using Lineweaver-Burk transformation of the Michaelis-Menten kinetic equation.

PAOh1/SMO = PAOh1/SMO activity in lysates of NCI A549 cells after analogue treatment; format: cell-based, human; settings: for substrate of the inducible PAOh1/SMO activity: lysates of NCI A549 treated with 10 μM BENSpm or CPENSpm 24 h, 250 μM substrate; for induction of PAOh1/SMO activity: NCI A549, 24 h exposure to 10 μM of each analogue
Experimental: (§1) Cell Culture and Analysis of Growth Inhibition of Human Lung Cancer Cell Lines The non-small-cell cancer lines NCI A549 (adenocarcinoma), NCI H157 (squamous), NCI H727 (carcinoid), NCI H125 (adenocarcinoma) and U1752 (squamous), and the small-cell lung carcinoma lines NCI H82 and NCI H889 were cultured as we have previously described. Cells were treated for the times and with the concentrations of specific agents as indicated in the Results. For cell growth analysis in the presence of the PAOh1/SMO inhibitor MDL 72,527, the MTS dye reduction assay CellTiter 96 system from Promega was used according to the supplier's protocol. In these experiments, NCI A549 cells were seeded at 5×10^3 cells/well in a 96-well microtiter plate and treated for 96 h with 10 μM of the indicated analogue in the presence or absence of 250 μM MDL 72,527.
(§2) Total cellular RNA was extracted from the lung cancer cell lines using Trizol reagent (Invitrogen) according to the manufacturer's protocol. For Northern blotting, total RNA (20 lg) was separated on a denaturing 1.5% agarose gel containing 6% formaldehyde and transferred to Zetaprobe membrane (Bio-Rad). Random primer- labeled PAOh1 cDNA was used as probe to estimate PAOh1/SMO expression. Blots were stripped and reprobed with an 18S ribosomal cDNA to provide a loading control. Analysis of polyamine content, SSAT and PAOh1/SMO activity. Intracellular polyamine concentrations were determined using the precolumn dansylation labeling, reverse-phase high-pressure liquid chromatography method as described by Kabra et al. using 1,7-diaminoheptane as an internal standard. Polyamine concentrations are reported as nanomoles per milligram protein for each sample, where lysate protein content was measured by the method of Bradford. SSAT activity of cellular extracts was measured as previously described. […] The PAOh1/SMO assays were performed in the presence of 1.0 mM pargyline and 0.1 mM semicarbizide as inhibitors of monoamine oxidase (MAO) and diamine oxidase (DAO), respectively.

NCI A549 cells [2] = assay: MTS cell growth analysis of NCI A549 cells with or without MDL 72,527; format: cell-based, human
Experimental: as §1

human PAOh1 = biological target: T3, human PAOh1 (Homo sapiens, UniProt Q9NWM0); assay: PAO activity of in vitro TnT (wheat germ) produced PAOh1, fluorescent H2O2 assay; format: biochemical; settings: 0.25 mM inhibitor, 250 μM spermine as substrate
T3 construct: made in house; host or cells: TnT-coupled wheat germ extract (Promega), template pPAOh1 (pcDNA3.1)
T3 sequence (Q9NWM0 whole entry): as the sequence (Q9NWM0 whole entry, the tested form may be a part) above
Experimental: In Vitro Transcription and Translation. In vitro transcription and translation reactions were performed with the TnT-coupled wheat germ extract system. Parallel reactions were prepared by adding an unlabeled amino acid mixture to one reaction and a [^35S]methionine containing amino acid mixture to the other, according to the supplied protocol. Vector pcDNA3.1 and pPAOh1 were linearized by SalI restriction and served as the templates. The labeled translation reactions products were separated by 10% SDS-PAGE, and radioactivity on the labeled PAO band was determined by Phosphor image analysis using Image Quant software (Molecular Dynamics, Sunnyvale, Calif.).
Determination of PAO Enzyme Activity. The cultured H157 cells with or without treatment of 10 μM N^1, N″-bis(ethyl)norspermine (BENSpm) were homogenized with a Dounce tissue homogenizer in ice-cold 0.083 M sodium borate buffer (pH 9.0). […] The enzyme activity was stopped by the addition of 2.0 ml of 0.1 M NaOH solution. The fluorescence intensity was measured with excitation at 323 nm and emission at 426 nm. […] Protein content of the cellular homogenate was determined using the Bio-Rad protein assay kit (Bio-Rad). […] For determination of PAO activity in the product of the unlabeled TnT reaction, 10 μl of TnT reaction were used in the place of the homogenate. […]

SSAT = SSAT activity of NCI A549 cellular extracts; format: cell-based, human; settings: NCI A549, 10 μM, 24 h; untreated 5 ± 0.1
Source text: as §2

NCI A549 cells [3] = assay: Intracellular polyamine and analogue content of NCI A549 cells (HPLC); format: cell-based, human; settings: NCI A549, 10 μM, 24 h
Source text: as §2

[4] = named compound as substrate, Lineweaver-Burk

T1 sequence (Q9NWM0 1-532 isoform Q9NWM0-4): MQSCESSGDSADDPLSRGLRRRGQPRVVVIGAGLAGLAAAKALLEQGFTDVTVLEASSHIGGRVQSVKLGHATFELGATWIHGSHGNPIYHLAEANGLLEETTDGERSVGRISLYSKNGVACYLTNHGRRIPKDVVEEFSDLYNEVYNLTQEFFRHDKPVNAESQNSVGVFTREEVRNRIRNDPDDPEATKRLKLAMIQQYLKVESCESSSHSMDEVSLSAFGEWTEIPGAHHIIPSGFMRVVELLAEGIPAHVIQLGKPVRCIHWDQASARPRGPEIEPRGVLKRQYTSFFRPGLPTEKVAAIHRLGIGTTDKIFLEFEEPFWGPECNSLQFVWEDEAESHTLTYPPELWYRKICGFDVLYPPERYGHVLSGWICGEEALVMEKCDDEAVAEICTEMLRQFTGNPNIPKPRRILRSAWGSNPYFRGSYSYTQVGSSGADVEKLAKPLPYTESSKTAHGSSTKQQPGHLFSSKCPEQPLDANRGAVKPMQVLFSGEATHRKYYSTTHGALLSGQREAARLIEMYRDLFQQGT

Row | Structure (SMILES) | Km of PAOh4 (PAOh4) | ability to serve as substrate (oxidation by purified PAOh1/SMO) [1] | substrate of the inducible PAOh1/SMO activity (PAOh1/SMO) | induction of PAOh1/SMO activity (PAOh1/SMO) | inhibition of PAOh1/SMO activity, increasing concentrations [1] | further results
1 | NCCCCNCCCN [spermidine] | nanomolar range | No PAOh1/SMO activity was observed | not significantly active | – | – | –
2 | CCNCCCNCCCNCCCNC[C@@H](C)CC [IPENSpm, (S)-N1-(2-methyl-1-butyl)-N^11-ethyl-4,8,diazaundecane] | – | none of the analogues examined were found to be oxidized | – | significant induction | – | –
3 | CCNCCCNCCCNCCCNCC1CCCCCC1 [CHENSpm, N^1-ethyl-N^11-(cycloheptyl) methyl-4,8,diazaundecane] | – | none of the analogues examined were found to be oxidized | – | significant induction | not found to profoundly inhibit | inhibition of PAOh1/SMO activity ([1]; at 10 μM): < 20%
4 | C=C=CCNCCCCNCC=C=C [MDL 72,527, N^1,N^4-bis(2,3-butadienyl)-1,4-butanediamine] | – | – | – | – | – | effect of the inhibitor alone on growth (NCI A549 cells [2]; NCI A549, 250 μM MDL 72,527): did not adversely affect the growth; IC50 [1]: ~10 µM; inhibition at 250 µM ([1]; read-out: inhibition of oxidation of spermine): > 95%; inhibition of the human PAOh1 protein product (human PAOh1): effective in inhibiting; basal oxidase activity in the presence of inhibitor (PAOh1/SMO; NCI A549 basal activity (4184 without inhibitor), 250 μM MDL 72,527): 4055 pmol/mg per hour; effect on the basal levels of oxidase activity (PAOh1/SMO; NCI A549 lysate, 250 μM MDL 72,527): did not significantly reduce; inhibition of the PAOh1/SMO activity induced by the analogues (PAOh1/SMO; NCI A549 lysate, 250 μM MDL 72,527 in the assay): significantly inhibited; part of the basal level of oxidase activity that is inhibited (PAOh1/SMO; basal (untreated) lung cancer cell lysate): less than 10%
5 | CCNCCCCNCCCCNCCCCNCCCCNC/C=C\CNCCCCNCCCCNCCCCNCCCCNCC [SL-11150] | – | none of the analogues examined were found to be oxidized | – | did not induce | potent inhibitors | potency relative to MDL 72,527 [1]: 100 times
6 | CC(=O)NCCCNCCCCNCCCN [N^1-acetylspermine] | nanomolar range | less efficient | not significantly active | – | – | Km [1, 4]: 51 µM; Vmax of purified PAOh1/SMO [1, 4]: 0.251 μmol/mg protein/min
7 | CCNCCCNCCCNCCCNCC1CC1 [CPENSpm, N^1-ethyl-N^11-(cyclopropyl) methyl-4,8,diazaundecane] | – | none of the analogues examined were found to be oxidized | – | significant induction | – | SSAT activity (SSAT): 1190 ± 287.9 pmol N^1-acetylspermidine/mg p; sensitivity of cell growth to analogue in the presence of the PAOh1/SMO inhibitor (NCI A549 cells [2]; NCI A549, 96 h, 10 μM analogue with 250 μM MDL 72,527): clear decrease in sensitivity; Polyamine: Putrescine (NCI A549 cells [3]; untreated 2.1 ± 0.7): <0.05 nmol/mg protein; Polyamine: Spermine (NCI A549 cells [3]; untreated 9.9 ± 1.2): 2.4 ± 0.4 nmol/mg protein; Polyamine: Spermidine (NCI A549 cells [3]; untreated 26.9 ± 1.2): 5.5 ± 0.2 nmol/mg protein; PAOh1/SMO activity (PAOh1/SMO; NCI A549, 10 μM, 24 h, untreated 6,390 ± 2,070): 14,300 ± 3,700 pmol H2O2/mg/h; dose-dependence of PAOh1/SMO activity (PAOh1/SMO; NCI A549, increasing concentrations, 24 h): continued to increase at concentrations up to 50 μM
8 | CCNCCCCNCCCCNCCCCNCCCCNC/C=C/CNCCCCNCCCCNCCCCNCCCCNCC [SL-11144] | – | none of the analogues examined were found to be oxidized | – | did not induce | potent inhibitors | potency relative to MDL 72,527 [1]: 100 times
9 | NCCCNCCCCNCCCN [spermine] | nanomolar range | efficiently oxidize | only spermine was a substrate | – | – | –

Reference: patent US20040229241A1, “Cloned mammalian polyamine oxidase” (priority 2001, published 2004)
